Reference: patent publication US20230241126A1 (priority 2022, published 2023)

Experiments:
[1] = tested on: Vero 76 cells
[2] = tested on: SARS-CoV-2; type: cell-based; conditions: 1-hour contact time at 22 ± 2° C.; versus virus control titer 5.0

CCO [Ethanol]
Toxicity (highest dilution of the endpoint titer where full (80-100%) cytotoxicity was observed) [1]: None
LRV (log reduction value) [2]: >4.3
